In patent US10519107B2, “Sulfonamide compounds and their use as STAT5 inhibitors” (Governing Council of the University of Toronto, priority 2014, dated 2019):
Entries after “also recorded” stand apart in the source; their conditions may differ.

Key:
[1] = Metabolic stability in pooled human liver s9 fractions with NADPH; format: in vitro ADME; conditions: 60 min
Procedure: (§1) For the pooled s9 fractions, solution of the s9 fraction along with NADPH was added to each well. […] The positive control used in the assay was Verapamil, a known drug to be metabolized by liver enzymes. The reaction was started by the addition of 13a and performed in duplicate. Aliquots were taken from the reaction solution at 0 min and 60 min. The reaction was stopped by the addition of cold methanol. Samples were then analyzed through LC-MS/MS to determine the metabolic profile.

[2] = test system: MDA-MB-231 breast cancer cells; test: Cell viability, MDA-MB-231; format: cell-based
Procedure: Breast carcinoma lines MDA-MB-231 and MDA-MB-468 were grown in dulbecco's modified eagles medium (DMEM) supplemented with 10% FBS (sigma). […] As a control, cells were treated with the DMSO alone.

[3] = Metabolic stability in human hepatocytes; format: in vitro ADME; conditions: 120 min
Procedure: (§2) 13a was then evaluated within intact human and mouse hepatocytes. Like the s9 fractions, Verapamil was used as a positive control in the assay. Cryopreserved hepatocytes were thawed and plated to a working cell density of 0.5×10^6 viable cell/mL.

MCL-1, cleaved PARP-1 = test: Western blotting of apoptosis and MCL-1 in MV-4;11 cells; format: cell-based, Human
Source text: Correspondingly, western blot analysis for protein levels of pSTAT5 and downstream target gene expression were also investigated within the AML cell line, MV-4; 11.

[4] = Metabolic stability in pooled mouse liver s9 fractions with NADPH; format: in vitro ADME; conditions: 60 min
Procedure: as §1

[5] = test system: 120 representative kinases (incl. JAK 1/2, ABL, FLT-3); test: KINOMEscan (DiscoverX) kinase profiling; format: binding; conditions: 5 μM, 120 kinases incl. JAK 1/2, ABL, qPCR
Procedure: KINOMEscan kinase profiling was performed as previously described (Fabian et al., 2005; Karaman et al., 2008). For most assays, kinase-tagged T7 phage strains were grown in parallel in 24-well blocks in an E. coli host derived from the BL21 strain. E. coli were grown to log-phase and infected with T7 phage from a frozen stock (multiplicity of infection=0.4) and incubated with shaking at 32° C. until lysis (90-150 minutes). The lysates were centrifuged (6,000×g) and filtered (0.2 μm) to remove cell debris. The remaining kinases were produced in HEK-293 cells and subsequently tagged with DNA for qPCR detection as previously described (Wodicka et al., 2010). […] The liganded beads were blocked with excess biotin and washed with blocking buffer (SeaBlock (Pierce), 1% BSA, 0.05% Tween 20, 1 mM DTT) to remove unbound ligand and to reduce non-specific phage binding. […] All reactions were performed in polypropylene 384-well plates in a final volume of 0.04 ml. […] The kinase concentration in the eluates was measured by qPCR and the data presented as % Ctrl (FIG. 1).

[6] = test system: MCL-1, MYC, cleaved PARP-1, Caspase-3; test: Western blotting of apoptosis markers and STAT5 transcriptional targets in K562 cells
Procedure: Proteins were extracted using RIPA buffer with protease and phosphates inhibitors and a careful protein determination were preformed (BCA protein assay kit, Pierce). […] The membranes were blocked with 5% nonfat milk for at least 1 h followed by an overnight incubation in primary antibody.
(§3) Downstream of STAT5, modulation of the STAT5 transcriptional targets, MCL-1, CYCLIND1/D2 and MYC was assessed.

wildtype STAT3 protein = wildtype STAT3 protein (Homo sapiens, UniProt P40763); test: Fluorescence polarization competitive binding, STAT3; conditions: FP; converted from IC50 with Equation 1
Procedure: Binding of compounds of the disclosure to the STAT5b SH2 domain was assessed using fluorescence polarization assays similar to those previously reported.^15 Analogous assays were also performed with STAT3 protein to determine the specificity of the compounds (13a-d). Fluorescence assays were performed in flat black 384-well plates (Corning) and fluorescence polarization measurements were taken with the Infinite M1000 machine (Tecan, Crailsheim, Germany). The buffer conditions for all assays were 20 mM HEPES, 50 mM NaCl, 1 mM EDTA, 2 mM dithiothreitol, pH 7.5 and the final DMSO concentration in the wells was kept constant at 10%.
Calibration curves for the wildtype STAT3 and STAT5b proteins were derived by incubating a 10 nM final concentration of fluoresceinated-phosphopeptide (5-FAM-pYLPQTC (SEQ ID NO:1) and 5-FAM-GpYLVLDKW (SEQ ID NO:2) for STAT3 and STAT5B, respectively), which are known to bind the SH2 domains, with increasing concentrations of protein (as shown in FIG. 3). The point at which 80% of the fluoresceinated-phosphopeptide was bound was used as the optimal protein concentration required for the competitive fluorescent polarization assays.
For the STAT5b fluorescence polarization assays, the 5-FAM-GpYLVLDKW (SEQ ID NO:2) peptide and STAT5b protein were first incubated for 30 minutes at room temperature. Compounds were titrated at concentrations ranging from 1->60,000 nM and incubated for a further 15 minutes at which point fluorescence polarization measurements were taken in triplicate. The final well concentrations of the fluoresceinated-phosphopeptide and STAT5B were 10 nM and 250 nM, respectively. The same protocol was used for the analogous STAT3 FP assays, except that the 5-FAM-pYLPQTC (SEQ ID NO:1) peptide was used as a probe and the final STAT3 concentration was 150 nM in each well.
The resulting fluorescence polarization measurements were normalized and plotted against compound concentration on a logarithmic scale. The raw data was fitted with a standard dose-normalized response inhibition curve using GraphPad Prism 6 software. The IC50 values were converted to Ki values using Equation 1, which corrects for protein concentration and is a more accurate determination of inhibitory constants in a fluorescence polarization assay than the Cheng-Pruskoff equation.^15 All inhibitory constants and calculated Ki values are summarized in Table 1.
Modified Cheng-Pruskoff equation containing a correction factor for protein concentration.

[7] = test system: phosphorylated STAT3 (Tyr 705); test: Western blotting of pSTAT3 in MDA-MB-231 cells; format: cell-based
Procedure: Proteins were extracted using RIPA buffer with protease and phosphates inhibitors and a careful protein determination were preformed (BCA protein assay kit, Pierce). In each assay, 30 μg of clarified whole cell extract were resolved on a 10% polyacrylamide-SDS gel and transferred to a nitrocellulose membrane (Bio-Rad). The membranes were blocked with 5% nonfat milk for at least 1 h followed by an overnight incubation in primary antibody.
Immunodetection was performed using antibodies against the total STAT5 (Cell Signaling #9363), phosphorylated STAT5 (Tyr 694) (Cell Signaling, cat. #9359), total STAT3 (Cell Signaling #4904) and phosphorylated STAT3 (Tyr 705) (Cell Signaling #9661), Cleaved Caspase-3 (Asp175) (Cell Signaling #9661), Cleaved-Parp-1 (ab72805) Anti-Cyclin D1 (Abcam ab16663), Anti-Cyclin-D2 (Abcam ab94685), Anti-c-Myc (Abcam ab32072) and β-actin (Cell Signaling #3700) as a loading control, followed by fluorescent conjugated goat secondary antibodies Alexa Fluor 488 (Cell Signaling #4408) and Alexa Fluor 647.
as §3

[8] = test system: phosphorylated STAT5 (Y694); test: Western blotting of pSTAT5 in K562 cells; format: cell-based, Human; conditions: K562, 5 hrs
Procedure: Human erythroleukemia K562 and MV-4-11 cells were cultured in Iscove's modified dulbecco's medium (Gibco) supplemented with 10% FBS (Sigma). Breast carcinoma lines MDA-MB-231 and MDA-MB-468 were grown in dulbecco's modified eagles medium (DMEM) supplemented with 10% FBS (sigma). For downregulation of STAT5 activity, cells were treated with 5, 10, 15, 20 μM of 13a-d STAT5 compounds, for 3 h and 5 h time points. As a control, cells were treated with the DMSO alone.

[9] = Metabolic stability in mouse hepatocytes; format: in vitro ADME; conditions: 120 min
Procedure: as §2

Sequence of wildtype STAT3 protein (P40763 whole entry, species assumed, the tested form may be a part): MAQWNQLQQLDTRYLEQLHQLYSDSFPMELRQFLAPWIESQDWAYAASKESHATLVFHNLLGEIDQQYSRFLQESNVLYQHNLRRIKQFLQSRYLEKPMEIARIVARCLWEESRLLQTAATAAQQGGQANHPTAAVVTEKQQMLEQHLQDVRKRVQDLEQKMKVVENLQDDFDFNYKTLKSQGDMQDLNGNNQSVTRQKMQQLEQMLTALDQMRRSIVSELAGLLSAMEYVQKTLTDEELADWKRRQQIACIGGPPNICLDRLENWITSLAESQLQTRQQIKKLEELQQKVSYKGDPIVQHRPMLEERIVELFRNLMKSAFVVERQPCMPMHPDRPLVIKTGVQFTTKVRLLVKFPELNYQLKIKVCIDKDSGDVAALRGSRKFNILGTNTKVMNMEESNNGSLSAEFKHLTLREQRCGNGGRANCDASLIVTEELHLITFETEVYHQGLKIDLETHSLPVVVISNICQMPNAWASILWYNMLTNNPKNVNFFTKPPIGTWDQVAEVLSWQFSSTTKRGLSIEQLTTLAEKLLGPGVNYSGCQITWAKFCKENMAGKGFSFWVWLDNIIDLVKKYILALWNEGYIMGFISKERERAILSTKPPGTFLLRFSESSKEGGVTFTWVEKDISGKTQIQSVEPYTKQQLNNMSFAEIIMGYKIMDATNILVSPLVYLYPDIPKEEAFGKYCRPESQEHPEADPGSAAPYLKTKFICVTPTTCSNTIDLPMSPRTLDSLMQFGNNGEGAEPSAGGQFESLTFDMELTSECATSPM

CC(C)(C)c1cc(CN(C(=O)CN(Cc2ccc(Cl)cc2)S(=O)(=O)c2c(F)c(F)c(F)c(F)c2F)c2ccc(C(=O)O)c(O)c2)cc(C(C)(C)C)c1 [Compound 13a, 4-(2-((N-(4-chlorobenzyl)-2,3,4,5,6-pentafluorophenyl)sulfonamido)-N-(3,5-di-tert-butylbenzyl)acetamido)-2-hydroxybenzoic Acid]
recovered in human liver s9 (HLS9) fractions [1]: 59.82%
less cytotoxic in MDA-MB-231 than in high pSTAT5 leukemic cell line [2]: 3 fold
recovered in human hepatocytes [3]: 68.56%
recovered in boiled human hepatocytes (negative control) ([3]; boiled hepatocytes): ~85%
downstream target MCL-1 (MCL-1, cleaved PARP-1; MV-4;11, 10 μM, 24 h): complete knockdown
apoptosis (MCL-1, cleaved PARP-1; MV-4;11, 24 h): initiation of apoptosis was observed
recovered in mouse liver s9 (MMLS9) fractions [4]: 6.96%
effects against the bank of kinases [5]: negligible effects
MYC (c-MYC) expression ([6]; K562, 5 hrs): dose-dependant decreases; also recorded: dose-dependent decreases
MCL-1 expression ([6]; K562, 24 hrs, 15 μM): complete knockdown
apoptosis (cleaved PARP-1, Caspase-3) ([6]; K562, 24 hrs, 15 μM): undergo cell death
Ki (wildtype STAT3 protein): > 60 µM
pSTAT3 inhibition ([7]; MDA-MB-231, doses corresponding to STAT5 inhibition): not inhibited
total STAT3 and STAT5 protein levels ([7]; MDA-MB-231 and leukemic cell line): neither total STAT3 or STAT5 protein levels were affected
levels of phosphorylated STAT5 (Y694) [8]: decreased pSTAT5 in a dose dependant manner and ablated pSTAT5 above 10 μM
total STAT5 concentration or cleavable PARP-1 [8]: no change
recovered in mouse hepatocytes [9]: 53.37%
recovered in boiled mouse hepatocytes (negative control) ([9]; boiled hepatocytes): ~85%
